Assay results: patent publication US20120046317A1, “NOVEL HETEROCYCLIC COMPOUNDS” (priority 2009, published 2012)

How the values were obtained:
[1] = tested on: AGE-LDL formation (Low density lipoprotein incubated with CuCl2); experiment: In vitro inhibition of AGE-LDL formation: LDL incubated with CuCl2, MDA-lysine adduct fluorescence; type: biochemical; conditions: LDL with CuCl2 at 37° C.
Protocol: In vitro Inhibition of AGE-LDL Formation:
Low density lipoprotein (LDL) was incubated with CuCl2 at 37° C. in phosphate buffered saline in the presence and absence of the following compounds. […] Results were expressed as % MDA-lysine adducts accumulation, considering the extent of the same formed upon incubation with CuCl2 alone as 100%.

[2] = tested on: AGE-BSA Formation (Bovine Serum Albumin incubated with ribose); experiment: In vitro prevention of advanced glycation endproducts (AGEs) accumulation: BSA incubated with ribose, fluorescence; conditions: one week
Protocol: A reduction in fluorescence intensity in the presence of the test compound is an indication of its ability to prevent accumulation of advanced glycation endproducts.
Bovine Serum Albumin was incubated with ribose alone as well as with ribose and different concentrations of the following compounds under aseptic conditions for one week. At the end of the incubation period fluorescence intensity of the samples was measured at excitation and emission wavelengths of 355 nm and 460 nm respectively.

| SMILES | % Inhibition of AGE-LDL-formation ([1]; Conc. 250 uM) | % Inhibition of AGE-BSA Formation ([2]; Conc. 1 mM) | % Inhibition of AGE-LDL-formation ([1]; Conc. 100 uM) | % Inhibition of AGE-BSA Formation ([2]; Conc. 100 uM) | % Inhibition of AGE-BSA Formation ([2]; Conc. 250 uM) |
| --- | --- | --- | --- | --- | --- |
| CS(=O)(=O)NNC(=O)C1=CN(CC(=O)c2ccc(Cl)s2)C=CC1 [Compound no. 6, 1-[2-(5-chlorothiophen-2-yl)-2-oxoethyl]-N′-(methylsulfonyl)-1,4-dihydropyridine-3-carbohydrazide] | ++++ (++++ indicate >30%) | +++ (+++ indicate 21-30%) |  |  |  |
| Cc1ccc(C(=O)CN2C=CCC(C(=O)NNS(C)(=O)=O)=C2)s1 [Compound no. 13, N′-(methylsulfonyl)-1-[2-(5-methylthiophen-2-yl)-2-oxoethyl]-1,4-dihydropyridine-3-carbohydrazide] | ++++ (++++ indicate >30%) | +++ (+++ indicate 21-30%) |  |  |  |
| O=C(CN1C=CCC(C(=O)NCCOC(=O)c2ccccc2)=C1)Nc1ccccc1 [Compound no. 107, 2-[({1-[2-oxo-2-(phenylamino)ethyl]-1,4-dihydropyridin-3-yl}carbonyl)amino]ethyl benzoate] |  |  | + (+ indicate 0-10%) |  |  |
| CS(=O)(=O)NNC(=O)C1=CN(CC(=O)c2ccc(Br)cc2)C=CC1 [compound 143, 1-[2-(4-bromophenyl)-2-oxoethyl]-N′-(methylsulfonyl)-1,4-dihydropyridine-3-carbohydrazide] |  |  | ++++ (++++ indicate >30%) | + (+ indicate 0-10%) |  |
| COc1ccc(C(=O)CN2C=CCC(C(=O)NNS(C)(=O)=O)=C2)cc1 [compound 144, 1-[2-(4-methoxyphenyl)-2-oxoethyl]-N′-(methylsulfonyl)-1,4-dihydropyridine-3-carbohydrazide] | ++++ (++++ indicate >30%) | + (+ indicate 0-10%) |  |  |  |
| Cc1ccc(S(=O)(=O)NNC(=O)C2=CN(CC(=O)Nc3ccccc3)C=CC2)cc1 [compound 145, 2-[3-({2-[(4-methylphenyl)sulfonyl]hydrazinyl}carbonyl)pyridin-1(4H)-yl]-N-phenylacetamide] | + (+ indicate 0-10%) |  |  |  | + (+ indicate 0-10%) |
| Cc1ccc(S(=O)(=O)NNC(=O)C2=CN(CC(=O)c3cccs3)C=CC2)cc1 [compound 147, N′-[(4-methylphenyl)sulfonyl]-1-[2-oxo-2-(thiophen-2-yl)ethyl]-1,4-dihydropyridine-3-carbohydrazide] |  |  | ++++ (++++ indicate >30%) | +++ (+++ indicate 21-30%) |  |
| O=C(NCCO)C1=CN(CC(=O)c2ccc(Br)cc2)C=CC1 [compound 148, 1-[2-(4-bromophenyl)-2-oxoethyl]-N-(2-hydroxyethyl)-1,4-dihydropyridine-3-carboxamide] |  | + (+ indicate 0-10%) |  |  |  |
| COc1ccc(C2=CN(CC(=O)c3cccs3)C=C(C(=O)NNS(C)(=O)=O)C2)cc1 [compound 151, 5-(4-methoxyphenyl)-N′-(methylsulfonyl)-1-[2-oxo-2-(thiophen-2-yl)ethyl]-1,4-dihydropyridine-3-carbohydrazide] |  |  | + (+ indicate 0-10%) | + (+ indicate 0-10%) |  |
| O=C(NCCO)C1=CN(CC(=O)c2cccs2)CCC1 [compound 158, N-(2-hydroxyethyl)-1-[2-oxo-2-(thiophen-2-yl)ethyl]-1,4,5,6-tetrahydropyridine-3-carboxamide] |  |  | + (+ indicate 0-10%) |  | + (+ indicate 0-10%) |
| O=C(CN1CCCC(C(=O)NNS(=O)(=O)c2ccccc2)C1)c1cccs1 (stereo not shown) [compound 160, 1-[2-oxo-2-(thiophen-2-yl)ethyl]-N′-(phenylsulfonyl)piperidine-3-carbohydrazide] |  |  | + (+ indicate 0-10%) | + (+ indicate 0-10%) |  |
| COc1ccc(C(=O)CN2CCCC(C(=O)NNS(=O)(=O)c3ccc(C)cc3)C2)cc1 (stereo not shown) [compound 162, 1-[2-(4-methoxyphenyl)-2-oxoethyl]-N′-[(4-methylphenyl)sulfonyl]piperidine-3-carbohydrazide] |  |  | ++++ (++++ indicate >30%) | + (+ indicate 0-10%) |  |
| COc1ccc(C(=O)CN2CCCC(C(=O)NNS(C)(=O)=O)C2)cc1 (stereo not shown) [compound 163, 1-[2-(4-methoxyphenyl)-2-oxoethyl]-N′-(methylsulfonyl)piperidine-3-carbohydrazide] |  |  | + (+ indicate 0-10%) |  | + (+ indicate 0-10%) |
| Cc1ccc(C(=O)CN2CCCC(C(=O)NNS(C)(=O)=O)C2)s1 (stereo not shown) [compound 164, N′-(methylsulfonyl)-1-[2-(5-methylthiophen-2-yl)-2-oxoethyl]piperidine-3-carbohydrazide] | + (+ indicate 0-10%) | + (+ indicate 0-10%) |  |  |  |
| CC(C)(C)c1ccc(S(=O)(=O)NNC(=O)C2CCCN(CC(=O)c3cccs3)C2)cc1 (stereo not shown) [compound 165, N′-[(4-tert-butylphenyl)sulfonyl]-1-[2-oxo-2-(thiophen-2-yl)ethyl]piperidine-3-carbohydrazide] |  |  | + (+ indicate 0-10%) | + (+ indicate 0-10%) |  |
| CS(=O)(=O)NNC(=O)C1=CCCN(CC(=O)c2ccc(Br)cc2)C1 [compound 167, 1-[2-(4-bromophenyl)-2-oxoethyl]-N′-(methylsulfonyl)-1,2,5,6-tetrahydropyridine-3-carbohydrazide] | + (+ indicate 0-10%) | + (+ indicate 0-10%) |  |  |  |
| CS(=O)(=O)NNC(=O)C1=CN(CC(=O)c2ccc(Cl)cc2Cl)C=CC1 [compound 168, 1-[2-(2,4-dichlorophenyl)-2-oxoethyl]-N′-(methylsulfonyl)-1,4-dihydropyridine-3-carbohydrazide] |  |  | + (+ indicate 0-10%) | + (+ indicate 0-10%) |  |
| O=C(NNS(=O)(=O)c1ccccc1)C1=CCCN(CC(=O)c2cccs2)C1 [compound 169, 1-[2-oxo-2-(thiophen-2-yl)ethyl]-N′-(phenylsulfonyl)-1,2,5,6-tetrahydropyridine-3-carbohydrazide] |  |  | + (+ indicate 0-10%) | + (+ indicate 0-10%) |  |
| O=C(NNC(=O)C1=CCCN(CC(=O)c2cccs2)C1)Nc1ccc(Cl)cc1 [compound 171, N-(4-chlorophenyl)-2-({1-[2-oxo-2-(thiophen-2-yl)ethyl]-1,2,5,6-tetrahydropyridin-3-yl}carbonyl)hydrazinecarboxamide] |  |  | + (+ indicate 0-10%) | + (+ indicate 0-10%) |  |
| CS(=O)(=O)NNC(=O)C1=CN(CC(=O)c2cccs2)CCC1 [compound 187, N′-(methylsulfonyl)-1-[2-oxo-2-(thiophen-2-yl)ethyl]-1,4,5,6-tetrahydropyridine-3-carbohydrazide] |  | + (+ indicate 0-10%) |  |  |  |
